What all share (experiment): inhibition of tumour cell growth, NCI panel, 48 h
In experiment [1] the test system is BT-549 breast.
The test system of experiment [2] is CAKI-1 renal.
Experiment [3] deals with HOP-62 NSCLC.
Experiment [4] has as its system MALME-3M melanoma.
For experiment [5], the system named is NCI-H23 lung.
The test system of experiment [6] is NCI-H460 lung.
In experiment [7] the test system is NCI-H522 lung.
Experiment [8] relates to OVCAR-3 ovarian.
Experiment [9] deals with SK-MEL-28 melanoma.
Experiment [10] relates to SR leukemia.

Each structure is given as a SMILES string.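 48-hour exposure; five concentrations; linearly interpolated endpoints. TGI: total growth inhibition.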

Consider `O=C1c2c(Cl)c(Cl)c(Cl)c(Cl)c2C(=O)N1CCN(c1c(Cl)ssc1=O)c1c(Cl)ssc1=O`, for which the TGI is greater than 100 µM in [1]; 34.7 µM in experiment [2]; greater than 100 µM in experiment [3]; 53.6 µM in experiment [4]; greater than 100 µM in experiment [5]; greater than 100 µM in [6]. Also, the TGI is 57.8 µM in experiment [7], 36.6 µM in [8], greater than 100 µM in experiment [9] and 44.7 µM in experiment [10].
Take `O=c1c2cc(-c3ccccc3)sc2nc2n1N=C(c1ccccc1)CS2`: the TGI was 46.7 µM in experiment [1]; 34.3 µM in [2]; 23 µM in [3]; greater than 100 µM in experiment [4]; greater than 100 µM in [5]; greater than 100 µM in experiment [6]. Also, the TGI in [7] was greater than 100 µM; in experiment [8] it was 49.1 µM; in [9], greater than 100 µM; in [10] it was greater than 100 µM.
For the compound `N#Cc1c(N2CCCC2)nsc1NCc1ccccc1`, the TGI in [1], in [2], in experiment [3], in [4], in [5] and in [6] was greater than 100 µM each time. Moreover, the TGI in experiment [7], in experiment [8], in experiment [9] and in [10] was greater than 100 µM each time.
Turning to `O=P1(C(O)/C=C/c2ccccc2)N(Cc2ccccc2)[C@H](c2ccccc2)[C@@H](c2ccccc2)N1Cc1ccccc1` (stereo not given in full), the TGI is greater than 89.4 µM in [1]; 99.7 µM in [2]; greater than 93.3 µM in [3]; 99.7 µM in [4]; greater than 59.2 µM in [5]; greater than 79.1 µM in [6]. In addition, the TGI in [7] is 59.2 µM; in [8], greater than 93.1 µM; in experiment [9], greater than 100 µM; in [10], 70.7 µM.
In the case of `Nc1sc2c(c1C(=O)c1ccc(Cl)c(Cl)c1)CCCC2`, the TGI in experiment [1], in experiment [2], in experiment [3], in experiment [4], in experiment [5] and in experiment [6] was greater than 100 µM throughout. Also, the TGI was 50.2 µM in experiment [7], greater than 100 µM in experiment [8], greater than 100 µM in [9] and greater than 100 µM in [10].
In the case of `Cc1c(C#N)c2nnn(-c3ccc(Cl)cc3)c(=O)n2c1-c1ccccc1`, the TGI in experiment [1] was 24.9 µM; in experiment [2] it was greater than 52.3 µM; in experiment [3], 3.73 µM; in experiment [4], 34.4 µM; in experiment [5], 19.8 µM; in experiment [6] it was 3.71 µM. The TGI is 0.207 µM in experiment [7], 0.772 µM in experiment [8], greater than 51.7 µM in [9] and greater than 56.6 µM in [10].
In the case of `CN(C)C(Cc1cnc[nH]1)C(=O)N1CCCC1C(N)=O` (stereo not given), the TGI in [1], in experiment [2], in [3], in experiment [4], in [5] and in [6] was greater than 100 µM each time. Besides, the TGI in experiment [7], in experiment [8], in experiment [9] and in [10] was greater than 100 µM in each case.
In the case of `O=c1cc(NCCCCCO)[nH]c(=O)[nH]1`, the TGI in [1], in experiment [2], in experiment [3], in experiment [4], in [5] and in experiment [6] was greater than 100 µM throughout. Further, the TGI in experiment [7], in experiment [8], in experiment [9] and in experiment [10] was greater than 100 µM each time.
On to `Cc1ccc(-c2nc(C)c(C(=O)Nc3ccc(Cl)cc3)s2)cc1`, for which the TGI in [1] is 78.2 µM; in experiment [2], 40.8 µM; in experiment [3] it was 26.2 µM; in experiment [4] it was greater than 100 µM; in [5] it was 83.6 µM; in experiment [6] it was greater than 100 µM. The TGI is greater than 100 µM in experiment [7], 98.6 µM in experiment [8], greater than 100 µM in experiment [9] and greater than 100 µM in [10].
In the case of `O=C(O)c1ccccc1NC(c1ccccc1)c1ccc2cccnc2c1O` (stereo not given), the TGI in experiment [1] was 45.1 µM; in experiment [2] it was 50.1 µM; in experiment [3], greater than 100 µM; in [4] it was greater than 56.4 µM; in [5], greater than 53 µM; in experiment [6], 63.4 µM. Further, the TGI in experiment [7] was 23.3 µM; in experiment [8] it was 14.4 µM; in experiment [9] it was 44.2 µM; in experiment [10] it was greater than 46.8 µM.
Consider `Cc1ccc(C2=Nc3cc(C)c(Cl)cc3S(=O)(=O)NN2)cc1`, for which the TGI in [1] was greater than 100 µM; in experiment [2] it was 75.7 µM; in experiment [3], greater than 100 µM; in experiment [4], greater than 100 µM; in experiment [5], greater than 100 µM; in [6], greater than 100 µM. Also, the TGI is greater than 100 µM in experiment [7], greater than 100 µM in experiment [8], greater than 100 µM in experiment [9] and 53 µM in [10].
Turning to `CCCCCCCC1C(C)c2c([nH]c3ccccc23)C2C(=O)N(c3ccc(OC)cc3)C(=O)C21` (stereo not given), the TGI in experiment [1] was 6.56 µM; in experiment [2], greater than 8.37 µM; in [3] it was greater than 7.78 µM; in [4], greater than 10 µM; in experiment [5], 6.99 µM; in experiment [6] it was 3.62 µM. Further, the TGI is greater than 10 µM in [7], 6.71 µM in experiment [8], greater than 10 µM in experiment [9] and greater than 10 µM in experiment [10].
